Assay results reported in PMC9267128, “New 2-[(4-Amino-6-N-substituted-1,3,5-triazin-2-yl)methylthio]-N-(imidazolidin-2-ylidene)-4-chloro-5-methylbenzenesulfonamide Derivatives, Design, Synthesis and Anticancer Evaluation” (International Journal of Molecular Sciences, 2022).

How the values were obtained:
[1] = tested on: HaCaT (human keratinocyte cell line); experiment: MTT cell viability assay, non-cancerous HaCaT; type: cell-based; conditions: Homo sapiens, HaCaT, 72 h, 72 h of incubation, non-cancerous keratinocytes
Summary of the method: (§1)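 Cells in DMEM with 10% FBS, 3 × 10^3 per well, exposed to compounds at 1–100 µM for 72 h at 37 °C. MTT at 0.5 mg/mL for 2 h, formazan dissolved in DMSO and read at 550 nm. Mean ± SD of at least three independent experiments, each in triplicate.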

[2] = tested on: HCT-116 (colon cancer); experiment: MTT cell viability assay, HCT-116; type: cell-based, human; conditions: for IC50: MTT assay, 72 h of incubation; for Selectivity Index (SI) HCT-116: IC50 value toward HaCaT cells/IC50 value toward HCT-116
Summary of the method: (§2)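 HCT-116 and HeLa cells in DMEM/10% FBS exposed 72 h to compounds over 1–100 µM. Viability by MTT (0.5 mg/mL, 2 h, 37 °C), formazan dissolved in DMSO and read at 550 nm; mean ± SD of at least three independent experiments.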

[3] = tested on: MCF-7 (breast cancer); experiment: MTT cell viability assay, MCF-7; type: cell-based, human; conditions: for IC50: Homo sapiens, MCF7, 72 h, MTT assay, 72 h of incubation; for Selectivity Index (SI) MCF-7: IC50 value toward HaCaT cells/IC50 value toward MCF-7
Summary of the method: as §1

[4] = tested on: HeLa (cervical cancer); experiment: MTT cell viability assay, HeLa; type: cell-based, human; conditions: for IC50: Homo sapiens, HeLa, MTT assay, 72 h of incubation; for Selectivity Index (SI) HeLa: IC50 value toward HaCaT cells/IC50 value toward HeLa
Summary of the method: as §2

Compound | IC50 [1] | IC50 ([2]; Homo sapiens, HCT-116, 72 h) | Selectivity Index (SI) HCT-116 [2] | IC50 [3] | Selectivity Index (SI) MCF-7 [3] | IC50 [4] | Selectivity Index (SI) HeLa [4] | IC50 [2]
Cc1cc(S(=O)(=O)N=C2NCCN2Cc2cccc(C(F)(F)F)c2)c(SCc2nc(N)nc(N3CCN(c4ccc(C(F)(F)F)cc4)CC3)n2)cc1Cl [Compound 114] | 27 ± 1 µM | 5 ± 0.2 µM | 5.4 | 6.5 ± 0.3 µM | 4.1 | 12 ± 0.3 µM | 2.2 | –
Cc1cc(S(=O)(=O)N=C2NCCN2Cc2cccc(C(F)(F)F)c2)c(SCc2nc(N)nc(N3CCN(c4ccc(Cl)c(Cl)c4)CC3)n2)cc1Cl [Compound 115] | 23 ± 0.5 µM | 5.5 ± 0.2 µM | – | 6.5 ± 0.2 µM | – | 12 ± 1 µM | – | –
COc1ccc(N2CCN(c3nc(N)nc(CSc4cc(Cl)c(C)cc4S(=O)(=O)N=C4NCCN4Cc4cccc(C(F)(F)F)c4)n3)CC2)cc1 [Compound 116] | 31 ± 2 µM | 6 ± 0.2 µM | – | 8.5 ± 0.3 µM | – | 17 ± 1 µM | – | –
Cc1cc(S(=O)(=O)N=C2NCCN2Cc2cccc(C(F)(F)F)c2)c(SCc2nc(N)nc(N3CCN(Cc4ccccc4)CC3)n2)cc1Cl [Compound 117] | 36 ± 2 µM | 16 ± 0.5 µM | – | 17 ± 1 µM | – | 12 ± 0.2 µM | – | –
Cc1cc(S(=O)(=O)N=C2NCCN2Cc2ccc(C(F)(F)F)cc2)c(SCc2nc(N)nc(N3CCOCC3)n2)cc1Cl [Compound 119] | 41 ± 2 µM | 13 ± 0.4 µM | – | 13.5 ± 1 µM | – | 18 ± 1 µM | – | –
Cc1cc(S(=O)(=O)N=C2NCCN2Cc2ccc(C(F)(F)F)cc2)c(SCc2nc(N)nc(N3CCc4ccccc43)n2)cc1Cl [Compound 120] | 24 ± 1 µM | 9 ± 0.5 µM | – | 11 ± 0.1 µM | – | 12 ± 0.5 µM | – | –
Cc1cc(S(=O)(=O)N=C2NCCN2Cc2ccc(C(F)(F)F)cc2)c(SCc2nc(N)nc(N3CCCc4ccccc43)n2)cc1Cl [Compound 121] | 24 ± 1 µM | 6 ± 0.1 µM | – | 14 ± 1 µM | – | 13 ± 1 µM | – | –
Cc1cc(S(=O)(=O)N=C2NCCN2Cc2ccc(C(F)(F)F)cc2)c(SCc2nc(N)nc(Nc3ccccc3)n2)cc1Cl [Compound 122] | 35 ± 1 µM | 14 ± 0.4 µM | – | 20 ± 1 µM | – | 19 ± 0.5 µM | – | –
Cc1cc(S(=O)(=O)N=C2NCCN2Cc2ccc(C(F)(F)F)cc2)c(SCc2nc(N)nc(Nc3ccc(F)cc3)n2)cc1Cl [Compound 123] | 30 ± 1 µM | 12 ± 0.5 µM | – | 21 ± 0.6 µM | – | 18 ± 1 µM | – | –
Cc1cc(S(=O)(=O)N=C2NCCN2Cc2ccc(C(F)(F)F)cc2)c(SCc2nc(N)nc(Nc3cccc(Cl)c3)n2)cc1Cl [Compound 124] | 31 ± 1 µM | 9.5 ± 0.1 µM | – | 10 ± 0.5 µM | – | 15 ± 0.2 µM | – | –
Cc1cc(S(=O)(=O)N=C2NCCN2Cc2ccc(C(F)(F)F)cc2)c(SCc2nc(N)nc(Nc3ccc(C(F)(F)F)cc3)n2)cc1Cl [Compound 125] | 25 ± 1 µM | 7.5 ± 0.2 µM | – | 7.5 ± 0.2 µM | – | 13 ± 0.5 µM | – | –
COc1ccc(Nc2nc(N)nc(CSc3cc(Cl)c(C)cc3S(=O)(=O)N=C3NCCN3Cc3ccc(C(F)(F)F)cc3)n2)cc1 [Compound 126] | 37 ± 1 µM | 11 ± 0.6 µM | – | 21 ± 1 µM | – | 20 ± 1 µM | – | –
Cc1cc(S(=O)(=O)N=C2NCCN2Cc2ccc(C(F)(F)F)cc2)c(SCc2nc(N)nc(NCc3ccccc3)n2)cc1Cl [Compound 127] | 39 ± 2 µM | 17 ± 0.5 µM | – | 17.5 ± 1 µM | – | 18 ± 1 µM | – | –
Cc1cc(S(=O)(=O)N=C2NCCN2Cc2ccc(C(F)(F)F)cc2)c(SCc2nc(N)nc(N(C)c3ccccc3)n2)cc1Cl [Compound 128] | 33 ± 1 µM | 10 ± 0.3 µM | – | 14 ± 0.5 µM | – | 15 ± 0.4 µM | – | –
Cc1cc(S(=O)(=O)N=C2NCCN2Cc2ccc(C(F)(F)F)cc2)c(SCc2nc(N)nc(N(C)c3ccc(Cl)cc3)n2)cc1Cl [Compound 129] | 31 ± 1 µM | 11 ± 0.1 µM | – | 14 ± 0.5 µM | – | 15 ± 1 µM | – | –
Cc1cc(S(=O)(=O)N=C2NCCN2Cc2ccc(C(F)(F)F)cc2)c(SCc2nc(N)nc(N3CCN(C)CC3)n2)cc1Cl [Compound 130] | 36 ± 1 µM | 10.5 ± 0.4 µM | – | 8 ± 0.3 µM | – | 17 ± 0.5 µM | – | –
Cc1cc(S(=O)(=O)N=C2NCCN2Cc2ccc(C(F)(F)F)cc2)c(SCc2nc(N)nc(N3CCN(c4ccccc4)CC3)n2)cc1Cl [Compound 131] | 25 ± 1 µM | 7 ± 0.2 µM | – | 15 ± 0.5 µM | – | 13 ± 0.5 µM | – | –
Cc1cc(S(=O)(=O)N=C2NCCN2Cc2ccc(C(F)(F)F)cc2)c(SCc2nc(N)nc(N3CCN(c4ccc(F)cc4)CC3)n2)cc1Cl [Compound 132] | 26 ± 1 µM | 8 ± 0.2 µM | – | 17 ± 0.4 µM | – | 16 ± 1 µM | – | –

Compound | IC50 [1] | IC50 ([2]; Homo sapiens, HCT-116, 72 h) | Selectivity Index (SI) HCT-116 [2] | IC50 [3] | Selectivity Index (SI) MCF-7 [3] | IC50 [4] | Selectivity Index (SI) HeLa [4] | IC50 [2]
Cc1cc(S(=O)(=O)N=C2NCCN2Cc2ccc(C(F)(F)F)cc2)c(SCc2nc(N)nc(N3CCN(c4ccccc4F)CC3)n2)cc1Cl [Compound 133] | 25 ± 1 µM | 8 ± 0.3 µM | – | 16 ± 0.5 µM | – | 14 ± 1 µM | – | –
Cc1cc(S(=O)(=O)N=C2NCCN2Cc2ccc(C(F)(F)F)cc2)c(SCc2nc(N)nc(N3CCN(c4cccc(C(F)(F)F)c4)CC3)n2)cc1Cl [Compound 135] | 19 ± 1 µM | 5 ± 0.2 µM | – | 6.5 ± 0.3 µM | – | 7 ± 0.2 µM | – | –
Cc1cc(S(=O)(=O)N=C2NCCN2Cc2ccc(C(F)(F)F)cc2)c(SCc2nc(N)nc(N3CCN(c4ccc(Cl)cc4)CC3)n2)cc1Cl [Compound 136] | 21 ± 1 µM | 5 ± 0.1 µM | – | 6 ± 0.3 µM | – | 10 ± 0.4 µM | – | –
Cc1cc(S(=O)(=O)N=C2NCCN2Cc2ccc(C(F)(F)F)cc2)c(SCc2nc(N)nc(N3CCN(c4cccc(Cl)c4)CC3)n2)cc1Cl [Compound 137] | 21 ± 1 µM | 6 ± 0.2 µM | – | 7 ± 0.4 µM | – | 12 ± 0.6 µM | – | –
COc1ccc(N2CCN(c3nc(N)nc(CSc4cc(Cl)c(C)cc4S(=O)(=O)N=C4NCCN4Cc4ccc(C(F)(F)F)cc4)n3)CC2)cc1 [Compound 139] | 24 ± 1 µM | 6 ± 0.1 µM | – | 13 ± 1 µM | – | 12 ± 1 µM | – | –
Cc1cc(S(=O)(=O)N=C2NCCN2Cc2ccc(C(F)(F)F)cc2)c(SCc2nc(N)nc(N3CCN(C(c4ccccc4)c4ccccc4)CC3)n2)cc1Cl [Compound 141] | 180 ± 9 µM | 7.5 ± 0.2 µM | – | 9.5 ± 0.5 µM | – | 45 ± 2 µM | – | –
Cc1cc(S(=O)(=O)N=C2NCCN2Cc2ccc(C(F)(F)F)cc2)c(SCc2nc(N)nc(N3CCC(Cc4ccccc4)CC3)n2)cc1Cl [Compound 142] | 29 ± 1 µM | 4.6 ± 0.1 µM | – | 6.5 ± 0.3 µM | – | 14 ± 0.2 µM | – | –
Cc1cc(S(=O)(=O)N=C2NCCN2Cc2ccc(C(F)(F)F)cc2)c(SCc2nc(N)nc(N3CC=C(c4ccc(F)cc4)CC3)n2)cc1Cl [Compound 143] | 19 ± 1 µM | 4.6 ± 0.1 µM | – | 6 ± 0.3 µM | – | 7 ± 0.4 µM | – | –
Cc1cc(S(=O)(=O)N=C2NCCN2Cc2cc(C(F)(F)F)cc(C(F)(F)F)c2)c(SCc2nc(N)nc(N3CCc4ccccc43)n2)cc1Cl [Compound 144] | 27 ± 1 µM | 8 ± 0.5 µM | – | 8 ± 0.2 µM | – | 13 ± 0.2 µM | – | –
Cc1cc(S(=O)(=O)N=C2NCCN2Cc2cc(C(F)(F)F)cc(C(F)(F)F)c2)c(SCc2nc(N)nc(N3CCCc4ccccc43)n2)cc1Cl [Compound 145] | 36 ± 1 µM | 13 ± 0.5 µM | – | 13 ± 0.8 µM | – | 16.5 ± 1 µM | – | –
Cc1cc(S(=O)(=O)N=C2NCCN2Cc2cc(C(F)(F)F)cc(C(F)(F)F)c2)c(SCc2nc(N)nc(Nc3ccccc3)n2)cc1Cl [Compound 146] | 32 ± 1 µM | 11.5 ± 0.5 µM | – | 12.5 ± 0.6 µM | – | 15 ± 1 µM | – | –
Cc1cc(S(=O)(=O)N=C2NCCN2Cc2cc(C(F)(F)F)cc(C(F)(F)F)c2)c(SCc2nc(N)nc(Nc3ccc(C(F)(F)F)cc3)n2)cc1Cl [Compound 147] | 28 ± 1 µM | 6.5 ± 0.3 µM | – | 8 ± 0.2 µM | – | 15 ± 1 µM | – | –
Cc1cc(S(=O)(=O)N=C2NCCN2Cc2cc(C(F)(F)F)cc(C(F)(F)F)c2)c(SCc2nc(N)nc(NCc3ccccc3)n2)cc1Cl [Compound 148] | 29 ± 1 µM | 9.5 ± 0.2 µM | – | 8.5 ± 0.5 µM | – | 15 ± 1 µM | – | –
Cc1cc(S(=O)(=O)N=C2NCCN2Cc2cc(C(F)(F)F)cc(C(F)(F)F)c2)c(SCc2nc(N)nc(N(C)c3ccc(Cl)cc3)n2)cc1Cl [Compound 149] | 33 ± 1 µM | 11.5 ± 0.6 µM | – | 11 ± 0.5 µM | – | 18 ± 1 µM | – | –
Cc1cc(S(=O)(=O)N=C2NCCN2Cc2cc(C(F)(F)F)cc(C(F)(F)F)c2)c(SCc2nc(N)nc(N3CCN(c4ccccc4)CC3)n2)cc1Cl [Compound 150] | 23 ± 1 µM | < 6 µM | 6.4 | 4.5 ± 0.2 µM | 5.1 | 11 ± 0.3 µM | 2.0 | 3.6 ± 0.2 µM
Cc1cc(S(=O)(=O)N=C2NCCN2Cc2cc(C(F)(F)F)cc(C(F)(F)F)c2)c(SCc2nc(N)nc(N3CCN(c4ccc(F)cc4)CC3)n2)cc1Cl [Compound 151] | 28 ± 1 µM | 6 ± 0.1 µM | – | 6 ± 0.1 µM | – | 15 ± 1 µM | – | –
Cc1cc(S(=O)(=O)N=C2NCCN2Cc2cc(C(F)(F)F)cc(C(F)(F)F)c2)c(SCc2nc(N)nc(N3CCN(c4ccccc4F)CC3)n2)cc1Cl [Compound 152] | 29 ± 1 µM | 6.5 ± 0.3 µM | – | 6.5 ± 0.3 µM | – | 15.5 ± 1 µM | – | –
